Test results: EP4553077A1 (Kinoteck Therapeutics Co., Ltd, priority 2022, dated 2024)

Biological target: Ba/F3-TEL-FGFR2 (Homo sapiens, UniProt P21802+P41212)
Test: Cell viability (proliferation inhibition) of Ba/F3 cells, CellTiter Glo
Settings: read-out: Ba/F3 cell FGFR2 (IC50 nM), 72 h

Chain of Ba/F3-TEL-FGFR2 (P21802 481-770 limits assumed, one chain of several): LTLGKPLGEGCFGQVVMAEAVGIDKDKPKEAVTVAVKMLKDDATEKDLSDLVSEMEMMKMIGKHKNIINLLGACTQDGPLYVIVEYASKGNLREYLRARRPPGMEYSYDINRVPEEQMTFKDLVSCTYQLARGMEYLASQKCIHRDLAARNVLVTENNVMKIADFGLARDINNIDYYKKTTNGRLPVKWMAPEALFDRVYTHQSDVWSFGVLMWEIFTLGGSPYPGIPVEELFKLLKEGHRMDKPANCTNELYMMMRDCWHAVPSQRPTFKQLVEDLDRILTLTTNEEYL

## [2H]C([2H])([2H])n1c(-c2cc(C)c(NC(=O)C(=C)C)cc2F)c(-c2ccc(N=S3(=O)CCCC3)c(F)c2)c2c(N)ncnc21 [Compound 91, N-(4-(4-amino-5-(3-fluoro-4-((1-tetrahydro-1λ^6-thiophene-1-ylidene)amino)phenyl) -7-(methyl-d3) -7H-pyrrolo [2,3-d]pyrimidin-6-yl) -5-fluoro-2-methylphenyl) methacrylamide]
  IC50: 23.9 nM

## C=C(C)C(=O)Nc1ccc(-c2c(-c3ccc(N=S(=O)(N4CCC4)C(F)(F)F)c(F)c3)c3c(N)ncnc3n2C)cc1 (centres unmarked) [Compound 55, N-(4-(4-amino-5-(4-((azetidine 1-yl (oxo) (trifluoromethyl) -λ^6-sulfanylidene)amino)-3-fluorophenyl)-7-methyl-7H-pyrrolo[2,3-d]pyrimidin-6-yl)phenyl) methacrylamide]
  IC50: 3 nM

## C=C(C)C(=O)Nc1ccc(F)c(-c2c(-c3ccc(N=S(=O)(N(C)C)C(F)(F)F)cc3)c3c(N)ncnc3n2C)c1 (centres unmarked) [Compound 39]
  IC50: 10.2 nM

## C=C(C)C(=O)Nc1ccc(-c2c(-c3ccc(N=S(C)(=O)C4CCC4)cc3)c3c(N)ncnc3n2C)c(F)c1 (centres unmarked) [Compound 50, N-(4-(4-amino-5-(4-((cyclobutyl (methyl) (oxo) - λ^6-sulfanylidene)amino)phenyl) -7-methyl-7H-pyrrole [2,3-d]pyrimidin-6-yl) -3-fluorophenyl) methacrylamide]
  IC50: 7.6 nM

## C=C(C)C(=O)Nc1ccc(-c2c(-c3ccc(N=S(=O)(CC)CC)cc3F)c3c(N)ncnc3n2C)c(F)c1 [Compound 85]
  IC50: 907 nM

## C=C(C)C(=O)Nc1ccc(-c2c(-c3ccc(N=S4(=O)CCCCC4)cc3F)c3c(N)ncnc3n2C)cc1 [Compound 43, N-(4-(4-amino-5-(2-fluoro-4-((1-oxotetrahydro-2H-1λ^6-thiopyran-1-ylidene)amino)phenyl) -7-methyl-7H-pyrrolo [2,3-d]pyrimidin-6-yl)phenyl) methacrylamide]
  IC50: 14.2 nM

## C=C(C)C(=O)N1CC=C(c2c(-c3ccc(N=S4(=O)CCCCC4)cc3)c3c(N)ncnc3n2C)CC1 [Compound 3, 1-(4-(4-amino-7-methyl-5-(4-(1-oxotetrahydro-2H-1λ^6-thiopyran-1-imino)phenyl)-7H-pyrrolo[2,3-d]pyrimidin-6-yl)-3,6-dihydropyridine-1(2H)-yl)2-methylprop-2-enyl-1-one]
  IC50: 700 nM

## C=C(C)C(=O)Nc1ccc(-c2c(-c3ccc(N=S(=O)(N4CCCC4)C(F)(F)F)c(F)c3)c3c(N)ncnc3n2C)cc1 (centres unmarked) [Compound 47, N-(4-(4-amino-5-(3-fluoro-4-((oxo (pyrrolidine-1-yl) (trifluoromethyl) - λ^6-sulfanylidene)amino)phenyl) -7-methyl-7H-pyrrolo [2,3-d]pyrimidin-6-yl)phenyl) methacrylamide]
  IC50: 2.7 nM

## C=C(C)C(=O)Nc1ccc(-c2c(-c3ccc(N=S4(=O)CCCC4)c(OC)c3)c3c(N)ncnc3n2C)c(F)c1 [Compound 80, N-(4-(4-amino-5-(3-methoxy-4-((1-hydroperoxid-1λ^6-thiophene-1-ylidene)amino)phenyl)-7-methyl-7H-pyrrolo[2,3-d]pyrimidin-6-yl)-3-fluorophenyl) methacrylamide]
  IC50: 46 nM

## C=C(C)C(=O)Nc1ccc(-c2c(-c3ccc(N=S4(=O)CCCC4)cc3)c3c(N)ncnc3n2CCN(C)C)c(F)c1 [Compound 78, N-(4-(4-amino-7-(2-(dimethylamino)ethyl) -5-(4-((1-hydroperoxide-1λ^6-thiophene-1-ylidene)amino)phenyl) -7H-pyrrolo [2,3-d]pyrimidin-6-yl) -3-fluorophenyl) methacrylamide]
  IC50: 585 nM

## C=C(C)C(=O)Nc1ccc(-c2c(-c3ccc(N=S4(=O)CCCC4)c(OC)c3)c3c(N)ncnc3n2C)c(Cl)c1 [Compound 81, N-(4-(4-amino-5-(3-methoxy-4-((1-hydroperoxid-1 λ^6-thiophene-1-ylidene)amino)phenyl) -7-methyl-7H-pyrrolo [2,3-d]pyrimidin-6-yl) -3-chlorophenyl) methacrylamide]
  IC50: 18.1 nM

## C=C(C)C(=O)Nc1ccc(-c2c(-c3ccc(N=S(C)(C)=O)c(F)c3)c3c(N)ncnc3n2C)c(F)c1 [Compound 42]
  IC50: 32.9 nM

## C=C(F)C(=O)Nc1ccc(-c2c(-c3ccc(N=S4(=O)CCCC4)cc3)c3c(N)ncnc3n2C)c(F)c1 [Compound 111]
  IC50: < 0.15 nM

## [2H]c1cc(-c2c(-c3ccc(NC(=O)C(=C)C)cc3F)n(C)c3ncnc(N)c23)cc([2H])c1N=S1(=O)CCCC1 [Compound 113]
  IC50: 1.8 nM

## C=CC(=O)Nc1ccc(-c2c(-c3ccc(N=S4(=O)CCCCC4)c(F)c3)c3c(N)ncnc3n2C)cc1 [Compound 13, N-(4-(4-amino-5-(3-fluoro-4-((1-oxotetrahydro-2H-1 λ^6-thiopyran-1-ylidene)amino)phenyl) -7-methyl-7H-pyrrolo [2,3-d]pyrimidin-6-yl)phenyl) acrylamide]
  IC50: 0.6 nM

## C=C(C)C(=O)Nc1ccc(-c2c(-c3ncc(N=S4(=O)CCCCC4)cc3F)c3c(N)ncnc3n2C)cc1 [Compound 36, N-(4-(4-amino-5-(3-fluoro-5-((1-oxotetrahydro-2H-1 λ^6-thiopyran-1-ylidene)amino)pyridin-2-yl) -7-methyl-7H-pyrrole [2,3-d]pyrimidin-6-yl)phenyl) methacrylamide]
  IC50: 53.5 nM

## C=C(C)C(=O)Nc1ccc(-c2c(-c3ccc(N=S4(=O)CCOCC4)cc3)c3c(N)ncnc3n2C)c(F)c1 [Compound 105]
  IC50: 20.9 nM

## C=C(C)C(=O)Nc1ccc(-c2c(-c3ccc(N=S4(=O)CCN(C)CC4)c(F)c3)c3c(N)ncnc3n2C)cc1 [Compound 30, N-(4-(4-amino-5-(3-fluoro-4-((4-methyl-1-oxo-1 λ^6-thiomorpholin-1-ylidene)amino)phenyl) -7-methyl-7H-pyrrolo [2,3-d]pyrimidin-6-yl)phenyl) methacrylamide]
  IC50: 1440 nM

## C=C(C)C(=O)Nc1ccc(-c2c(-c3ccc(N=S4(=O)CCCC4)cc3F)c3c(N)ncnc3n2C)c(F)c1 [Compound 61, N-(4-(4-amino-5-(2-fluoro-4-((1-oxotetrahydro-1λ^6-thiophene-1-ylidene)amino)phenyl)-7-methyl-7H-pyrrolo[2,3-d]pyrimidin-6-yl)-3-fluorophenyl) methacrylamide]
  IC50: 150 nM

## C=C(C)C(=O)Nc1ccc(-c2c(-c3ccc(N=S(C)(C)=O)c(F)c3)c3c(N)ncnc3n2C)cc1 [Compound 44]
  IC50: 216 nM

## C=C(C)C(=O)Nc1ccc(-c2c(-c3cc(F)c(N=S(=O)(CC)CC)cc3F)c3c(N)ncnc3n2C)c(F)c1 [Compound 76]
  IC50: 6.1 nM

## C=C(C)C(=O)Nc1ccc(-c2c(-c3ccc(N=S(=O)(N(C)CC)C(F)(F)F)cc3)c3c(N)ncnc3n2C)cc1 (centres unmarked) [Compound 54, N-(4-(4-amino-5-(4-(((ethyl (methyl)amino) (oxo) (trifluoromethyl) -λ^6-sulfanylidene)amino)phenyl) -7-methyl-7H-pyrrolo [2,3-d]pyrimidin-6-yl)phenyl) methacrylamide]
  IC50: 2.8 nM

## C=C(C)C(=O)Nc1ccc(F)c(-c2c(-c3ccc(N=S4(=O)CCCCC4)c(F)c3)c3c(N)ncnc3n2C)c1 [Compound 12, N-(3-(4-amino-5-(3-fluoro-4-((1-oxotetrahydro-2H-1 λ^6-thiopyran-1-ylidene)amino)phenyl) -7-methyl-7H-pyrrolo [2,3-d]pyrimidin-6-yl) -4-fluorophenyl) methacrylamide]
  IC50: 276 nM

## C=C(C)C(=O)N(C)c1ccc(-c2c(-c3ccc(N=S4(=O)CCCCC4)c(F)c3)c3c(N)ncnc3n2C)cc1 [Compound 46, N-(4-(4-amino-5-(3-fluoro-4-((1-oxotetrahydro 2H-1λ^6 - thiopyran-1-ylidene)amino)phenyl) -7-methyl-7H-pyrrolo [2,3-d]pyrimidin-6-yl)phenyl) - N-methylmethacrylamide]
  IC50: 162 nM

## CC#CC(=O)N1CC=C(c2c(-c3ccc(N=S4(=O)CCCCC4)cc3)c3c(N)ncnc3n2C)CC1 [Compound 66]
  IC50: 27.8 nM

## C=C(C)C(=O)Nc1ccc(-c2c(-c3ccc(N=S(C)(C)=O)cc3)c3c(N)ncnc3n2C)cc1 [Compound 45]
  IC50: 83.1 nM

## [2H]c1c([2H])c(-c2c(-c3ccc(NC(=O)C(=C)C)cc3F)n(C)c3ncnc(N)c23)c([2H])c([2H])c1N=S1(=O)CCCC1 [Compound 114, N-(4-(4-amino-7-methyl-5-(4-((1-oxidetetrahydro-1 λ^6-thiophene-1-ylidene)amino)phenyl-2,3,5,6-d4) -7H-pyrrolo [2,3-d]pyrimidin-6-yl) -3-fluorophenyl) methacrylamide]
  IC50: 1.2 nM

## C=C(C)C(=O)Nc1ccc(-c2c(-c3ccc(N=S4(=O)CC(OC)(OC)C4)c(F)c3)c3c(N)ncnc3n2C)cc1 [Compound 10]
  IC50: 107 nM

## C=C(F)C(=O)N1CC=C(c2c(-c3ccc(N=S4(=O)CCCCC4)cc3)c3c(N)ncnc3n2C)CC1 [Compound 65, 1-(4-(4-amino-7-methyl-5-(4-((1-oxotetrahydro-2H-1 λ^6-thiopyran-1-ylidene)amino)phenyl)-7H-pyrrolo[2,3-d]pyrimidin-6-yl)-3,6-dihydropyridine-1(2H)-yl) -2-fluoropropan-2-enyl-1-one]
  IC50: 121 nM

## C=C(COC)C(=O)Nc1ccc(-c2c(-c3ccc(N=S4(=O)CCCC4)c(F)c3)c3c(N)ncnc3n2C)cc1 [Compound 18, N-(4-(4-amino-5-(3-fluoro-4-((1-oxotetrahydro-1 λ^6-thiophene-1-ylidene)amino)phenyl) -7-methyl-7H-pyrrolo [2,3-d]pyrimidin-6-yl)phenyl) -2-(methoxymethyl) acrylamide]
  IC50: 21.5 nM

## CC#CC(=O)Nc1ccc(-c2c(-c3ccc(N=S(C)(C)=O)c(F)c3)c3c(N)ncnc3n2C)cc1C(C)(C)O [Compound 20]
  IC50: 86.7 nM

## CC#CC(=O)Nc1ccc(-c2c(-c3ccc(N=S4(=O)CCCC4)cc3)c3c(N)ncnc3n2C)cc1 [Compound 60, N-(4-(4-amino-7-methyl-5-(4-((1-oxotetrahydro-1 λ^6-thiophene-1-ylidene)amino)phenyl) -7H-pyrrolo [2,3-d]pyrimidin-6-yl)phenyl) but-2-ynamide]
  IC50: 13.1 nM
